#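 Abbreviation: GI50, concentration required for 50% inhibition of growth. TGI: total growth inhibition.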
# Columns and labels:
# Experiment in all cases: growth of human tumour cells (NCI), 384-well format
# [1] = tested on: K-562 leukemia
# [2] = tested on: HCT-116 colon
# [3] = tested on: SK-OV-3 ovarian
# [4] = tested on: OVCAR-4 ovarian
# [5] = tested on: SK-MEL-5 melanoma
# [6] = tested on: A498 renal
# [7] = tested on: DU-145 prostate
# [8] = tested on: MALME-3M melanoma
# [9] = tested on: NCI-H522 lung
# [10] = tested on: OVCAR-8 ovarian
# [11] = tested on: NCI/ADR-RES ovarian
# [12] = tested on: COLO 205 colon
# [13] = tested on: 786-0 renal
# [14] = tested on: OVCAR-5 ovarian
# [15] = tested on: HCC-2998 colon
# [16] = tested on: NCI-H460 NSCLC
# [17] = tested on: SK-MEL-28 melanoma
# [18] = tested on: TK-10 renal
# [19] = tested on: IGROV1 ovarian
# [20] = tested on: SF-268 CNS
# [21] = tested on: RXF 393 renal
# [22] = tested on: U251 glioblastoma
# [23] = tested on: HOP-62 NSCLC
# [24] = tested on: LOX IMVI melanoma
# [25] = tested on: SF-539 CNS
# [26] = tested on: A549 NSCLC
# [27] = tested on: HT29 colon
# [28] = tested on: OVCAR-3 ovarian
# [29] = tested on: KM12 colon
# [30] = tested on: MDA-MB-468 breast
# [31] = tested on: NCI-H322M lung
# [32] = tested on: NCI-H226 lung
# [33] = tested on: SW-620 colon
# [34] = tested on: BT-549 breast
# [35] = tested on: SN12C renal
# [36] = tested on: M14 melanoma
# [37] = tested on: EKVX NSCLC
# [38] = tested on: SNB-75 CNS
# [39] = tested on: RPMI-8226 leukemia
# [40] = tested on: HS 578T breast
# [41] = tested on: HL-60(TB) leukemia
# [42] = tested on: HCT-15 colon
# [43] = tested on: MDA-MB-231 breast
# [44] = tested on: CCRF-CEM leukemia
# [45] = tested on: NCI-H23 lung
# [46] = tested on: SNB-19 CNS
# [47] = tested on: MCF7 breast
# [48] = tested on: T-47D breast
# [49] = tested on: HOP-92 NSCLC
# [50] = tested on: UO-31 renal
# [51] = tested on: MOLT-4 leukemia
# [52] = tested on: ACHN renal
# [53] = tested on: UACC-257 melanoma
# [54] = tested on: UACC-62 melanoma
# [55] = tested on: MDA-MB-435 melanoma
# [56] = tested on: CAKI-1 renal
compound,measurement,setting,value
CCn1c(CO)nn(-c2cc(O[C@@H](C)C(F)(F)F)c(C(=O)Nc3c(F)cccc3Cl)cc2F)c1=O,GI50,[1],< 0.01 µM
same,TGI,[1],> 100 µM
same,GI50,[2],< 0.01 µM
same,TGI,[2],> 100 µM
same,GI50,[3],22.7 µM
same,TGI,[3],> 100 µM
same,GI50,[4],54.9 µM
same,TGI,[4],> 100 µM
same,GI50,[5],< 0.01 µM
same,TGI,[5],18.8 µM
same,GI50,[6],13.5 µM
same,TGI,[6],> 100 µM
same,GI50,[7],< 0.01 µM
same,TGI,[7],> 100 µM
same,GI50,[8],< 0.01 µM
same,TGI,[8],> 100 µM
same,GI50,[9],< 0.01 µM
same,TGI,[9],84.5 µM
same,GI50,[10],< 0.01 µM
same,TGI,[10],> 100 µM
same,GI50,[11],< 0.01 µM
same,TGI,[11],88 µM
same,GI50,[12],< 0.01 µM
same,TGI,[12],> 100 µM
same,GI50,[13],< 0.01 µM
same,TGI,[13],32.5 µM
same,GI50,[14],< 0.01 µM
same,TGI,[14],> 100 µM
same,GI50,[15],18.6 µM
same,TGI,[15],> 100 µM
same,GI50,[16],< 0.01 µM
same,TGI,[16],14.7 µM
same,GI50,[17],< 0.01 µM
same,TGI,[17],19.9 µM
same,GI50,[18],< 0.01 µM
same,TGI,[18],> 100 µM
same,GI50,[19],2.22 µM
same,TGI,[19],> 100 µM
same,GI50,[20],< 0.01 µM
same,TGI,[20],< 0.01 µM
same,GI50,[21],< 0.01 µM
same,TGI,[21],12.3 µM
same,GI50,[22],< 0.01 µM
same,TGI,[22],30.7 µM
same,GI50,[23],6.85 µM
same,TGI,[23],> 100 µM
same,GI50,[24],< 0.01 µM
same,TGI,[24],< 0.01 µM
same,GI50,[25],16.1 µM
same,TGI,[25],> 100 µM
same,GI50,[26],< 0.01 µM
same,TGI,[26],> 100 µM
same,GI50,[27],< 0.01 µM
same,TGI,[27],62.6 µM
same,GI50,[28],20.8 µM
same,TGI,[28],> 100 µM
same,GI50,[29],< 0.01 µM
same,TGI,[29],> 100 µM
same,GI50,[30],< 0.01 µM
same,TGI,[30],22.6 µM
same,GI50,[31],9.92 µM
same,TGI,[31],> 100 µM
same,GI50,[32],17.6 µM
same,TGI,[32],> 100 µM
same,GI50,[33],< 0.01 µM
same,TGI,[33],20.4 µM
same,GI50,[34],< 0.01 µM
same,TGI,[34],> 100 µM
same,GI50,[35],< 0.01 µM
same,TGI,[35],> 100 µM
same,GI50,[36],< 0.01 µM
same,TGI,[36],62.7 µM
same,GI50,[37],63.4 µM
same,TGI,[37],> 100 µM
same,GI50,[38],13.4 µM
same,TGI,[38],79.2 µM
same,GI50,[39],< 0.01 µM
same,TGI,[39],< 0.01 µM
same,GI50,[40],15.2 µM
same,TGI,[40],> 100 µM
same,GI50,[41],< 0.01 µM
same,TGI,[41],< 0.01 µM
same,GI50,[42],< 0.01 µM
same,TGI,[42],> 100 µM
same,GI50,[43],< 0.01 µM
same,TGI,[43],> 100 µM
same,GI50,[44],< 0.01 µM
same,TGI,[44],43 µM
same,GI50,[45],< 0.01 µM
same,TGI,[45],> 100 µM
same,GI50,[46],17.5 µM
same,TGI,[46],> 100 µM
same,GI50,[47],< 0.01 µM
same,TGI,[47],91.3 µM
same,GI50,[48],7.65 µM
same,TGI,[48],58.2 µM
same,GI50,[49],< 0.01 µM
same,TGI,[49],> 100 µM
same,GI50,[50],< 0.01 µM
same,TGI,[50],28.8 µM
same,GI50,[51],< 0.01 µM
same,TGI,[51],< 0.01 µM
same,GI50,[52],< 0.01 µM
same,TGI,[52],> 100 µM
same,GI50,[53],11.2 µM
same,TGI,[53],> 100 µM
same,GI50,[54],< 0.01 µM
same,TGI,[54],70.2 µM
same,GI50,[55],< 0.01 µM
same,TGI,[55],> 100 µM
same,GI50,[56],< 0.01 µM
same,TGI,[56],> 100 µM

# Reference: PubChem BioAssay (NCI)
